Where two headings read alike, the source gives them in different places.
Assays:
[1] = target: T1, CB1 receptor (Rattus norvegicus, UniProt P20272); conditions: values from Hanu et al 1999; ligand [3H]HU-243; cited from earlier work
[2] = target: T1, CB1 receptor; assay: CB1 binding procedure: displacement of [3H]CP 55,940 from rat whole-brain P2 membranes; design: whole brain was homogenized and centrifuged; from tissue; host or cells: rat whole brain, P2 membrane fraction; conditions: means ± SEM; [3H]CP 55,940, rat brain membranes; read-out: Ki (nM) CB1
Experimental: (§1) Male ICR mice (25–32 g), obtained from Harlan (Dublin, Va.), were housed in groups of five. All animals were kept in a temperature-controlled (20–22° C.) environment with a 12-hour light-dark cycle (lights on at 7 a.m.). Separate mice were used for testing each drug dose in the in vivo behavioral procedures. Brain tissue for binding studies was obtained from male Sprague-Dawley rats (150–200 g) purchased from Harlan Laboratories (Dublin, Va.).
The methods used for tissue preparation and binding have been described previously (Compton et al., 1993) and are similar to those described by Devane et al. (1988). All assays, as described briefly below, were performed in triplicate, and the results represent the combined data from three to six individual experiments.
Following decapitation and rapid removal of the brain, whole brain was homogenized and centrifuged. The resulting pellet was termed P1. The supernatant was saved and combined with the two subsequent supernatants obtained from washing of the P1 pellet. The combined supernatant fractions were centrifuged, resulting in the P2 pellet. After further incubation and centrifuging, this pellet was resuspended in assay buffer to a protein concentration of approximately 2 mg/ml. The membrane preparation was quickly frozen in a bath solution of dry ice and 2-methylbutane (Sigma Chemical Co., St. Louis, Mo.), then stored at −80° C. for no more than 2 weeks. Prior to performing a binding assay an aliquot of frozen membrane was rapidly thawed and protein values determined by the method of Bradford (1976).
Binding was initiated by the addition of 150 μg of P2 membrane to test tubes containing 1 nM of [^3H] CP 55,940 (79 Ci/mmol) and a sufficient quantity of buffer to bring the total incubation volume to 1 ml. Nonspecific binding was determined by the addition of 1 μM unlabeled CP 55,940. Following incubation at 30° C. for 1 hr, binding was terminated by addition of ice cold buffer and vacuum filtration through pretreated filters in a 12-well sampling manifold (Millipore, Bedford, Mass.). After washing, filters were placed into plastic scintillation vials (Packard, Downer Grove, Ill.) and shaken. The quantity of radioactivity present was determined by liquid scintillation spectrometry.
(§2) In addition, multiple linear regression was used to calculate the overall degree of relationship between CB1 binding affinity and potency in the mouse measures for all active cannabinoids. […] Ki values for CB1 and CB2 binding were obtained from Scatchard displacement analysis as determined via EBDA program of the KELL software package (Biosoft, Milltown, N.J.).

[3] = target: T2, CB2 receptor (Homo sapiens, UniProt P34972); assay: CB2 binding procedure: displacement of [3H]CP-55,940 from membranes of transfected CHO cells; conditions: for CB1/CB2 (ratio of Ki): CB1 Ki divided by CB2 Ki; for Ki: means ± SEM, [3H]CP-55,940, transfected CHO cell membranes, read-out: Ki (nM) CB2
T2 construct: expressed in transfected cells; host or cells: CHO cells, G418-selected transfected line
T2 sequence (P34972 whole entry): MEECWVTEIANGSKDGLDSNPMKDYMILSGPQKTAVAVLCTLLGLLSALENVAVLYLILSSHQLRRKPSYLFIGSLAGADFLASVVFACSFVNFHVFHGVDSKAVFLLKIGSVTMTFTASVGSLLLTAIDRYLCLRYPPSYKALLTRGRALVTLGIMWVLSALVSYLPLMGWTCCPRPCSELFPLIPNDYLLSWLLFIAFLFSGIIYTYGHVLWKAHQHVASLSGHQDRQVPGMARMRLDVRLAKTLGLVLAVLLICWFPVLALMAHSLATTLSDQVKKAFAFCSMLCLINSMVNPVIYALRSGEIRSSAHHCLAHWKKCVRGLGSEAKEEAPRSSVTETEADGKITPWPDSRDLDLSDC
Experimental: Membranes for CB2 binding were obtained from CHO cells. The transfected cell line was maintained in Dublecco's Modified Eagle Medium (Gibco BRL, Grand Island, N.Y.) with 10% fetal clone II (HyClone Laboratories, Inc., Logan, Utah) plus 0.3 to 0.5 mg/ml G418 (to maintain selective pressure) under 5% CO2 at 37% C. Cells were harvested with 1 mM EDTA in phosphate-buffered saline and were centrifuged at 1000×g for 5 min at 4% C. The supernatant was saved and the P1 pellet was resuspended in centrifugation buffer. Homogenization and centrifugation were repeated twice and the combined supernatant fractions were centrifuged at 40,000×g for 30 min at 4% C. The P2 pellet was resuspended in centrifugation buffer 2 (Tris HCl, 50 mM; EDTA, 1 mM; and MgCl2, 3 mM, pH 7.4) to a protein concentration of approximately 2 mg/ml. Protein concentrations were determined by the method of Bradford (1976) using Bio-Rad Protein Assay (Bio-Rad, Richmond, Calif.) and BSA standards (fatty acid free, Sigma Chemical Co., St. Louis, Mo.). The membrane preparation was divided into amounts convenient for binding assays and frozen rapidly in dry ice and stored at −80% C.
Binding was initiated by the addition of 50 μg of quickly thawed P2 membranes to test tubes containing [^3H]CP-55,940 (final reaction concentration 0.5 nM), an appropriate concentration of unlabeled CP-55,940 or test drug, and sufficient quantity of assay buffer (50 mM Tris-HCl, 1 mM EDTA, 3 mM MgCl2, 5 mg/ml bovine serum albumin, pH 7.4) to bring the total incubation volume to 0.5 ml. Concentration of [^3H]CP-55,940 in saturation studies ranged from 50 to 10,000 pM. Nonspecific binding was determined by the addition of 1 μM unlabeled CP-55,940. CP-55,940 and all cannabinoid analogs were prepared by suspension in assay buffer from a 1 mg/ml ethanolic stock without evaporation of the ethanol (final concentration of no more than 0.4%). In competition studies, analog concentrations ranged from 0.1 nM to 10 μM. After incubation at 30% C for 1 hr, binding was terminated by the addition of 2 ml of ice-cold wash buffer (50 mM Tris-HCl and 1 mg/ml BSA) and vacuum filtration through pre-treated filters in a 12-well sampling manifold (Millipore, Bedford, Mass.). Reaction vessels were washed once with 2 ml of ice-cold wash buffer. Filters were placed into 7-ml plastic scintillation vials (RPI Corp., Mount Prospect, Ill.) with 4 ml of Budget-Solve (RPI Corp.). After shaking for 30 min, the radioactivity present was determined by liquid scintillation spectrometry. Three reaction vessels were used for each drug concentration in each assay. The results represent the combined data of three independent experiments. All assays were performed in siliconized test tubes, which were prepared by air drying (12 hr) inverted borosilicate tubes after two rinses with a 0.1% solution of AquaSil (Pierce, Rockford, Ill.). The GF/C glass-fiber filters (2.4 cm, Baxter, McGaw Park, Ill.) were pre-treated in a 0.1% solution of pH 7.4 polyethylenimine (Sigma Chemical Co.) for at least 6 hr.
as §2

[4] = system: Male ICR mice; assay: Change in rectal temperature (RT) in mice; assay type: in vivo, mouse; conditions: for ED50: Mus musculus, iv
Experimental: as §1
(§3) Measurement of spontaneous activity in mice occurred in standard activity chambers interfaced with a Digiscan Animal Activity Monitor (Omnitech Electronics, Inc., Columbus, Ohio). A standard tail-flick apparatus and a digital thermometer (Fisher Scientific, Pittsburgh, Pa.) were used to measure antinociception and rectal temperature, respectively
(§4) Resorcinols were synthesized in our labs (Organix, Inc., Woburn, Mass.) according to the procedure specified below and were suspended in a vehicle of absolute ethanol, Emulphor-620 (Rhone-Poulenc, Inc., Princeton, N.J.), and saline in a ratio of 1:1:18. Drugs were administered to the mice intravenously (i.v.) in the tail vein at a volume of 0.1 ml/10 g.
(§5) Prior to testing in the behavioral procedures, mice were acclimated to the experimental setting (ambient temperature 22–24° C.) overnight. Pre-injection control values were determined for rectal temperature and tail-flick latency (in sec). […] Tail-flick latency was measured at 20 min post-injection. Maximum latency of 10 sec was used. Antinociception was calculated as percent of maximum possible effect {% MPE=[(test−control latency)/(10-control)]×100}. Control latencies typically ranged from 1.5 to 4.0 sec. At 30 min post-injection, rectal temperature was measured This value was expressed as the difference between control temperature (before injection) and temperatures following drug administration (° C.). Different mice (n=5–6 per dose) were tested for each dose of each compound. Each mouse was tested in each of the 3 procedures.
(§6) Based on data obtained from numerous previous studies with cannabinoids, maximal cannabinoid effects in each procedure were estimated as follows: 90% inhibition of spontaneous activity, 100% MPE in the tail flick procedure, and −6° C. change in rectal temperature. ED50's were defined as the dose at which half maximal effect occurred. For drugs that produced one or more cannabinoid effect, ED50's were calculated separately using least-squares linear regression on the linear part of the dose-effect curve for each measure in the mouse tetrad, plotted against log10 transformation of the dose. For the purposes of potency comparison, potencies were expressed as μmol/kg.

[5] = system: Male ICR mice; assay: Suppression of spontaneous activity (SA) in mice; assay type: in vivo, mouse
Experimental: as §1, §3, §4, §5, §6

[6] = system: Male ICR mice; assay: Tail-flick antinociception (TF, % MPE) in mice; assay type: in vivo, mouse; conditions: for ED50: Mus musculus, iv
Experimental: as §1, §3, §4, §5, §6

[7] = system: Male ICR mice; assay: Lethality noted in the mouse behavioral procedures; assay type: in vivo; conditions: Table 6; @ 30 (mg/kg)
Experimental: as §4, §5

[8] = mice, i.v., 95% confidence limits in parentheses, read-out: ED50 RT (rectal temperature)
[9] = mice, i.v., 95% confidence limits in parentheses, read-out: ED50 TF (antinociceptive effect in tail flick assay)

T1 sequence (P20272 whole entry): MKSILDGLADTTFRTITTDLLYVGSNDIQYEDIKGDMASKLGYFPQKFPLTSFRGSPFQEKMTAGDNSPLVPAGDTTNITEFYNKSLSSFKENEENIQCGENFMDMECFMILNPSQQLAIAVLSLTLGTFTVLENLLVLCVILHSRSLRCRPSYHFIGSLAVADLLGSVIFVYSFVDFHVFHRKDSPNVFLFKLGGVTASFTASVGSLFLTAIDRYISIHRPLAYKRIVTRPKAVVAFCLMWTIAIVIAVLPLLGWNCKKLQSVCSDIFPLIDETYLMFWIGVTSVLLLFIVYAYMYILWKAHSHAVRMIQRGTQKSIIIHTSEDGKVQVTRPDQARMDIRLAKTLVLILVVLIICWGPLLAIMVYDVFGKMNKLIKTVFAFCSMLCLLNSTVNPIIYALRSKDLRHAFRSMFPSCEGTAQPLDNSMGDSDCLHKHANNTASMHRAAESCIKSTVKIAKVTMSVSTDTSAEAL

CCCCCCC(C)(C)c1cc(OC)c([C@@H]2C=C(CO)[C@@H]3C[C@H]2C3(C)C)c(OC)c1 [HU-308]
Ki [1]: > 10000 nM

CCCCCCC(C)(C)c1ccc(-c2cc(CO)ccc2C(C)C)c(O)c1 [O-1601, 3-1′,1′-Dimethylheptyl-6-(2-isopropyl-5-hydroxy-methylphenyl)-phenol]
Ki [2]: 5 ± 0.6 nM | CB1/CB2 (ratio of Ki) [3]: 2 | Ki [3]: 3 ± 0.4 nM | ED50 [4, 8]: 1.6 µmol/kg | ED50 ([5]; Mus musculus, iv, mice, i.v., 95% confidence limits in parentheses, read-out: ED50 SA (suppression of spontaneous activity)): 1.1 µmol/kg | ED50 [6, 9]: 1.1 µmol/kg

CCCCCCC(C)(C)c1cc(O)c(C2CCCC(C)C2)c(O)c1 (single isomer, unassigned) [O-1797A]
Ki [2]: 5 ± 0.6 nM | CB1/CB2 (ratio of Ki) [3]: 12 | Ki [3]: 0.4 ± 0.03 nM | ED50 ([4]; Table 6, mice, i.v., read-out: R.T. ED50): 0.252 mg/kg | ED50 [4, 8]: 0.7 µmol/kg | S.A ED50 ([5]; Table 6, mice, i.v., listed as O-1297): 0.154 mg/kg | ED50 SA (suppression of spontaneous activity) ([5]; mice, i.v., 95% confidence limits in parentheses): 0.5(0.4–0.6) μmol/kg | ED50 ([6]; Table 6, mice, i.v., read-out: T.F. ED50): 0.362 mg/kg | ED50 [6, 9]: 1.1 µmol/kg

CCCCCCC(C)(C)c1cc(O)c(C2CCN(C)CC2)c(O)c1 [O-1662, 2-(1-Methylpiperidin-4-yl)-5-(1′,1′-dimethylheptyl)-re-sorcinol]
Ki [2]: > 10000 nM | Lethality at dose [7]: Lethal | Ki [3]: 5420 ± 1100 nM | R.T. effect at dose ([4]; Table 6, @ 10 (mg/kg)): 1 °C | RT effect at the highest dose (change in rectal temperature) ([4]; mice, i.v., 30 mg/kg): −3(30) °C | S.A % effect at dose, stim. ([5]; Table 6, stimulation, @ 10 (mg/kg)): 77% stim. | SA percent effect at the highest dose ([5]; mice, i.v., 30 mg/kg, % inhibition of activity of vehicle group): 87%(30) | T.F. % effect at dose ([6]; Table 6, @ 10 (mg/kg)): 7 @ 10% | TF percent effect (% MPE) at the highest dose ([6]; mice, i.v., 30 mg/kg): 30%(30)

From US7179800B2 (priority 2002, dated 2007)
